Assay results: US12012390B2, “Flavone compounds for the treatment and prophylaxis of hepatitis B virus disease” (priority 2018, dated 2024)
Where two headings read alike, the source gives them in different places.

Key:
[1] = test system: HBV in primary human hepatocytes (PHH); assay: Cryopreserved primary human hepatocytes (PHH) HBV infection assay; format: cell-based; conditions: HBV-infected cryopreserved PHH, 9 days post-compound treatment, extracellular HBsAg by CLIA, read-out: HBsAg IC50
Experimental: This assay is used to confirm the anti-HBV effect of the compounds in HBV PHH infection assay. Cryopreserved PHH (BioreclamationIVT, Lot YJM) was thawed at 37° C. and gently transferred into pre-warmed InVitroGRO HT medium (BioreclamationIVT, Cat. S03317). The mixture was centrifuged at 70 relative centrifugal force (RCF) for 3 minutes at RT, and the supernatant was discarded. Pre-warmed InVitroGRO CP medium (BioreclamationIVT, Cat #S03316) was added to the cell pellet to gently re-suspend cells. The cells were seeded at the density of 5.8×10^4 cells per well to collagen I coated 96-well plate (Gibco, Cat. A1142803) with the InVitroGRO CP medium. All plates were incubated at 37° C. with 5% CO2 and 85% humidity.
At 20 hours after plating, the medium was changed to PHH culture medium (Dulbecco's Modified Eagle Medium (DMEM)/F12 (1:1) (Gibco, Cat. 11320-033), 10% fetal bovine serum (Gibco Cat. 10099141), 100 U/mL penicillin, 100 μg/mL streptomycin (Gibco, Cat. 151401-122), 5 ng/mL human epidermal growth factor (Invitrogen Cat. PHG0311L), 20 ng/mL dexamethasone (Sigma, Cat. D4902) and 250 ng/mL human recombinant insulin (Gibco, Cat. 12585-014)). And the cells were incubated at 37° C. with 5% CO2 and 85% humidity for 4 hours. The medium was then changed to pre-warmed PHH culture medium containing 4% polyethylene glycol (PEG) MW8000 (Sigma, Cat. P1458-50ML) and 1% DMSO (Sigma, Cat. D2650). 5.8×10^6 genomic equivalents of HBV were added into the medium.
At 24 hours post-infection, the cells were gently washed with PBS and refreshed with PHH culture medium supplemented with 1% DMSO, and 0.25 mg/mL Matrix gel (Corning, Cat. 356237) at 200 μL per well. All plates were immediately placed in at 37° C. CO2 incubator.
24 hours later, serial dilutions of compounds made with DMSO were further diluted with the same culture medium (PHH culture medium supplemented with 1% DMSO and 0.25 mg/mL Matrix gel as described above) before they were added to the cells to reach desired final compound concentrations and 1% DMSO concentration. The medium containing the compounds were refreshed every three days.
At 9 days post-compound treatment, extracellular HBsAg level were measured with Chemiluminescence Immuno Assay (CLIA) kit (Autobio, HBsAg Quantitative CLIA). Extracellular HBV DNA was extracted by MagNA Pure 96 system (Roche) and then determined by quantitative PCR with the following primers and probe: […]
HBsAg IC50 and HBV DNA IC50 values were derived from the dose-response curve using 4 parameter logistic curve fit method. The compounds of formula (I) have HBsAg IC50<20 μM, particularly <1 μM; and HBV DNA IC50<50 μM. Test results of the compounds of this invention as well as the reference compounds in Cryopreserved PHH assay are given in Table 2 and Table 3.

[2] = test system: HBeAg level (surrogate marker for cccDNA) in HepDES19 cells; assay: Engineered HepDES19 primary screen assay (HBeAg as surrogate marker for cccDNA); format: cell-based, HBV
Description: The assay was employed to screen for novel cccDNA inhibitors. HepDES19 is a cccDNA-producing cell line. In this cell line, HBeAg in the cell culture supernatant as surrogate marker, as HBeAg production depends on cccDNA level and activity. HepDES19 is an engineered cell line which contains a 1.1 unit length HBV genome, and pgRNA transcription from the transgene is controlled by Tetracycline (Tet). In the absence of Tet, pgRNA transcription will be induced, but HBV e antigen (HBeAg) could not be produced from this pgRNA due to very short leader sequence before the HBeAg start codon and the start codon is disrupted. Only after cccDNA is formed, the missing leader sequence and start codon mutation would be restored from the 3′-terminal redundancy of pgRNA, and then HBeAg could be synthesized. Therefore, HBeAg could be used as a surrogate marker for cccDNA (Zhou, T. et al., Antiviral Res. (2006), 72(2), 116-124; Guo, H. et al., J. Virol. (2007), 81(22), 12472-12484).
HepDES19 cells were seeded at 2×10^6 cells per T150 flask and cultured with the culture medium (Dulbecco's Modified Eagle Medium: Nutrient Mixture F-12 [DMEM-F12, Gibco Cat. 11320-82], 10% Fetal Bovine Serum [FBS, Clontech Cat. 631101], 0.1 mM Non-Essential Amino Acids Solution [NEAA, Gibco Cat. 11140-050], 50 μg/mL Penicillin-Streptomycin [PS, Invitrogen Cat. 15140-163], 500 μg/mL Geneticin [G418, Invitrogen Cat. 10131-027]) containing 3 μg/mL Tet (Sigma, Cat. 87128) for 5 days. Cells were then seeded at 4×10^6 cells per T150 in the same culture medium as described above in the absence of Tet for 8 days. Cells were then harvested and frozen at density of 2×10^6 cells per mL. For compound testing, the frozen cells were thawed and seeded into 96-well plates at a density of 6×10^4 cells per well. At 24 hrs after seeding, half log serial dilutions of compounds made with Dimethyl sulfoxide (DMSO, Sigma, Cat. D2650) were further diluted with the same culture medium as described above before they were added to the cells to reach desired final compound concentrations and 1% DMSO concentration. Plates were then incubated at 37° C. for another 5 days before measurement of HBeAg level and cell viability. Intracellular HBeAg level were measured with enzyme-linked immunosorbent assay (ELISA) kit (Shanghai Kehua Diagnostic Medical Products Co., Ltd). Cell viability was assessed using Cell Counting Kit-8 (Donjindo, Cat. CK04-20). IC50 values were derived from the dose-response curve using 4 parameter logistic curve fit method.
The compounds of the present invention were tested for their capacity to inhibit extracellular HBeAg level as described herein.

[3] = read-out: IC50 (HBeAg) in HepDES19 primary screen assay, HepDES19 cells, 5 days incubation with compound, HBeAg by ELISA
[4] = Hepatitis B virus, Hepatocyte, 216 h
[5] = Hepatitis B virus, HepDES19, 120 h, read-out: IC50 (HBeAg) in HepDES19 primary screen assay, HepDES19 cells, 5 days incubation with compound, HBeAg by ELISA

Compound	IC50 [1]	IC50 [2, 3]	IC50 [1, 4]	IC50 [2, 5]
O=c1cc(-c2ccc(OCCO[C@H]3C[C@@H](C(=O)O)C3)nc2)oc2c(Cl)cccc12 (single isomer, unassigned) [Example 38-B, 3-[2-[[5-(8-chloro-4-oxo-chromen-2-yl)-2-pyridyl]oxy]ethoxy]cyclobutanecarboxylic acid]	880 nM	760 nM		
O=C(O)C1CC(OCCOc2ccc(-c3cc(=O)c4cccc(Cl)c4s3)cc2)C1 (centres unmarked) [Example 57, 3-[2-[4-(8-chloro-4-oxo-thiochromen-2-yl)phenoxy]ethoxy]cyclobutanecarboxylic acid]			140 nM	90 nM
O=c1cc(-c2ccc(OCCO[C@H]3C[C@@H](C(=O)O)C3)cc2)oc2c(Cl)ccc(Cl)c12 [Example 29, Cis-3-[2-[4-(5,8-dichloro-4-oxo-chromen-2-yl)phenoxy]ethoxy]cyclobutanecarboxylic acid]			900 nM	210 nM
O=c1cc(-c2ccc(OCCO[C@H]3C[C@@H](C(=O)O)C3)c(F)c2)oc2c(Cl)cccc12 [Example 42, Cis-3-[2-[4-(8-chloro-4-oxo-chromen-2-yl)-2-fluoro-phenoxy]ethoxy]cyclobutanecarboxylic acid]			580 nM	610 nM
COC(=O)C1CC(OCCOc2ccc(-c3oc4c(Cl)cc(F)cc4c(=O)c3OC(F)(F)F)cc2)C1 (single isomer, unassigned) [Example 62-A, methyl 3-[2-[4-[8-chloro-6-fluoro-4-oxo-3-(trifluoromethoxy)chromen-2-yl]phenoxy]ethoxy]cyclobutanecarboxylate]			4220 nM	1010 nM
O=C(O)C1CC(OCCOc2ccc(-c3cc(=O)c4ccc(Cl)c(Cl)c4o3)cc2)C1 (centres unmarked) [Example 21, 3-[2-[4-(7,8-dichloro-4-oxo-chromen-2-yl)phenoxy]ethoxy]cyclobutanecarboxylic acid]			5100 nM	290 nM
O=c1cc(-c2ccc(OCCO[C@H]3C[C@@H](C(=O)O)C3)cc2)oc2c(Cl)ccc(O)c12 [Example 24, Cis-3-[2-[4-(8-chloro-5-hydroxy-4-oxo-chromen-2-yl)phenoxy]ethoxy]cyclobutanecarboxylic acid]			4830 nM	1140 nM
O=c1cc(-c2ccc(OCCO[C@H]3C[C@H](C(=O)O)C3)cc2)oc2c(Cl)cccc12 [Example 1-B, trans-3-[2-[4-(8-chloro-4-oxo-chromen-2-yl)phenoxy]ethoxy]cyclobutanecarboxylic acid]			80 nM	140 nM
O=C(O)C1CC(OCCOc2ccc(-c3oc4c(Cl)cccc4c(=O)c3Cl)cc2)C1 (centres unmarked) [Example 53, 3-[2-[4-(3,8-dichloro-4-oxo-chromen-2-yl)phenoxy]ethoxy]cyclobutanecarboxylic acid]			4010 nM	22000 nM
O=C(O)[C@H]1C[C@H]1OCCOc1ccc(-c2cc(=O)c3cccc(Cl)c3o2)cc1 (single isomer, unassigned) [Example 5-B, 2-[2-[4-(8-chloro-4-oxo-chromen-2-yl)phenoxy]ethoxy]cyclopropanecarboxylic acid]		11200 nM	1780 nM	
O=c1cc(-c2ccc(OCCO[C@H]3C[C@@H](C(=O)O)C3)cc2)oc2c(Cl)cccc12 [Example 1-A, cis-3-[2-[4-(8-chloro-4-oxo-chromen-2-yl)phenoxy]ethoxy]cyclobutanecarboxylic acid]			720 nM	140 nM
CC(COc1ccc(-c2cc(=O)c3cccc(Cl)c3o2)cc1)OC1CC(C(=O)O)C1 (centres unmarked) [Example 12, 3-[2-[4-(8-chloro-4-oxo-chromen-2-yl)phenoxy]-1-methyl-ethoxy]cyclobutanecarboxylic acid]			210 nM	1070 nM
CCOC(=O)C1CC1OCCOc1ccc(-c2cc(=O)c3cccc(Cl)c3o2)cc1 (single isomer, unassigned) [Example 4-A, ethyl 2-[2-[4-(8-chloro-4-oxo-chromen-2-yl)phenoxy]ethoxy]cyclopropanecarboxylate]	6340 nM	530 nM		
